Measurements reported in US20210205329A1 (The University of North Carolina at Chapel Hill, priority 2018, published 2021).

Target: T1, TLR4/MD-2 complex (Mus musculus, UniProt Q9QUK6)
T1 construct: protein extracts were collected 24 hrs post-treatment and immunoprecipitated with antibody to TLR4; endogenous in cells; host or cells: RAW264.7
T1 sequence (Q9QUK6 26-835): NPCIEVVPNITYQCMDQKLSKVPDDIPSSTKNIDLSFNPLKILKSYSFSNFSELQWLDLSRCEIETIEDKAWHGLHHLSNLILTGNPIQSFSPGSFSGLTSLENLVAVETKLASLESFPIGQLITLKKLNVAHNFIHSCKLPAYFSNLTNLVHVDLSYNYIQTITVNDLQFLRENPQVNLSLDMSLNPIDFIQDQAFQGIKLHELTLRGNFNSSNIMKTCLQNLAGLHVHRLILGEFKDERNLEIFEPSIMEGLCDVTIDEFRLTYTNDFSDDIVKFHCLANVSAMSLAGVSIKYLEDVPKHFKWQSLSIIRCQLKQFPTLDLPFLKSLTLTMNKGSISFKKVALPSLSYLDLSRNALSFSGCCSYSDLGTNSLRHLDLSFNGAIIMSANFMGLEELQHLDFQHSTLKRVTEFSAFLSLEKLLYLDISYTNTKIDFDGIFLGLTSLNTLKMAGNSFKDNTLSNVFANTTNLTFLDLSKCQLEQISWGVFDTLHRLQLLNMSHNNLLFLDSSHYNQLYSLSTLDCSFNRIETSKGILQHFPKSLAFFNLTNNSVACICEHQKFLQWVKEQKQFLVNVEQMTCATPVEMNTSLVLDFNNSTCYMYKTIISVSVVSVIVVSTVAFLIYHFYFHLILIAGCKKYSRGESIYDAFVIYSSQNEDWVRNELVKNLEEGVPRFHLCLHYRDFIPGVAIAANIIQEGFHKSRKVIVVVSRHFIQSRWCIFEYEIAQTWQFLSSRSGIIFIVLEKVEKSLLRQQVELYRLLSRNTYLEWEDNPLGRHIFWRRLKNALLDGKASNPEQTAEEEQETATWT
Assay: TLR4/MD-2 co-immunoprecipitation in LPS-treated RAW264.7 cells
Format: cell-based
Conditions: 1.0 μM; LPS 1 μg/ml; 24 hrs post-treatment
Experimental: Co-Immunoprecipitation Assay RAW264.7 cells [treated with LPS (1 μg/ml), 3α,5α-THP (1 μM) or pregnenolone (1 μM)] were exposed to chemical protein crosslinking (Poulopoulos et al, 2009) at 24 hrs post-treatment. Briefly, the cells were incubated (20 min on ice) with 1 mM of the cleavable, membrane-permeable crosslinker DSP (Thermo Fisher Scientific, Cat. #PG82081). Rat VTA homogenates were incubated (20 min on ice) with 200 μM of DSP. The crosslinker was quenched in 1 M Tris buffer (pH 7.5) (to a final concentration of 10-20 mM), and the material was centrifuged at 21,000×g for 15 min. Proteins from the cells were extracted with Pierce IP Lysis Buffer (Thermo Fisher Scientific, Cat. #87787) supplemented with protease and phosphatase inhibitor cocktails (Sigma). Proteins from the VTA were extracted with CelLytic MT (dialyzable mild detergent, bicine and 150 mM NaCl; Sigma Aldrich, St. Louis, Mo., USA, Cat. #C3228) supplemented with protease and phosphatase inhibitor cocktails (Sigma) according to the manufacturers instructions. […]

Row | Structure (SMILES) | reduction of MD-2 co-precipitated with TLR4 [%]
1 | CC(=O)[C@H]1CC[C@H]2[C@@H]3CC[C@H]4C[C@H](O)CC[C@]4(C)[C@H]3CC[C@]12C [3α,5α-THP, (3α,5α)3-hydroxypregnan-20-one] | 45.4±6.9
2 | CC(=O)[C@H]1CC[C@H]2[C@@H]3CC=C4C[C@@H](O)CC[C@]4(C)[C@H]3CC[C@]12C [pregnenolone] | 57.2±7.3
